Data taken from patent publication US20150010928A1, “MEANS AND METHODS FOR ASSESSING AN ENDOCRINE DISEASE OR DISORDER” (priority 2012, published 2015).
Counter-ions that a name gives are not always drawn. Marks after values point to notes of the source that are not given here.

Test system: female rats
Test: Plasma metabolite profiling (GC-MS, LC-MS, SPE-LC-MS) in female rats dosed once daily over 28 days (OECD 407)
Format: in vivo, rat
Design: key to 5-O-Methylsphingosine (d18:1) / Isopalmitic acid (C16:0) / Valine / Alanine / Ketoleucine / Serine / Lactate / Arginine: ratio of treated group mean to untreated control mean
Conditions: for Alanine / Arginine / Ketoleucine / Lactate / Proline / Serine / Valine: Table 17b; for Cholesterol / Choline plasmalogen No 02 / Lignoceric acid (C24:0) / Sphingomyelin (d18:1, C16:0) / Sphingomyelin (d18:2, C16:0) / erythro-Sphingosine (d18:1): Table 14a
Protocol: Each dose group in the studies consisted of five rats per sex. Additional groups of each 5 male and female animals served as controls. […] All animals of the animal population were kept under the same constant temperature (20-24±3° C.) and the same constant humidity (30-70%). The animals of the animal population were fed ad libitum. The food to be used was essentially free of chemical or microbial contaminants. Drinking water was also offered ad libitum. Accordingly, the water was free of chemical and microbial contaminants as laid down in the European Drinking Water Directive 98/83/EG. The illumination period was 12 hours light followed by 12 hours darkness (12 hours light, from 6:00 to 18:00, and 12 hours darkness, from 18:00 to 6:00). […] The test substances (compounds) in the Tables 1 to 17 below were dosed and administered as described in the Table 18.
In the morning of day 7, 14, and 28, blood was taken from the retroorbital venous plexus from fasted anaesthetized animals. From each animal, 1 ml of blood was collected with EDTA as anticoagulant. The samples were centrifuged for generation of plasma. All plasma samples were covered with a N2 atmosphere and then stored at −80° C. until analysis.
For mass spectrometry-based metabolite profiling analyses plasma samples were extracted and a polar and a non-polar (lipid) fraction was obtained. For GC-MS analysis, the non-polar fraction was treated with methanol under acidic conditions to yield the fatty acid methyl esters. Both fractions were further derivatised with O-methyl-hydroxyamine hydrochloride and pyridine to convert Oxogroups to O-methyloximes and subsequently with a silylating agent before analysis. In LC-MS analysis, both fractions were reconstituted in appropriate solvent mixtures. HPLC was performed by gradient elution on reversed phase separation columns. Mass spectrometric detection which allows target and high sensitivity MRM (Multiple Reaction Monitoring) profiling in parallel to a full screen analysis was applied as described in WO2003073464.
Steroids and their metabolites were measured by online SPE-LC-MS (Solid phase extraction-LC-MS).
Following comprehensive analytical validation steps, the data for each analyte were normalized against data from pool samples. These samples were run in parallel through the whole process to account for process variability. The significance of treatment group values specific for sex, treatmentduration and metabolite was determined by comparing means of the treated groups to the means of the respective untreated control groups using WELCH-test and quantified with treatment ratios versus control and p-values.
The identification of the most important biomarkers per toxicity pattern was done by a ranking of the analytes in the tables below. Therefore the metabolic changes in reference treatments of a given pattern (shown in the table) were compared with changes of the same metabolite in other unrelated treatments. […] The maximum absolute value of the respective TVALUE was taken to indicate the most important metabolite for the pattern.

[1] = f7, female rats, high dose, Table 17a
[2] = f28, female rats, high dose, Table 17a

Row | Compound | Isopalmitic acid (C16:0) [1] | Alanine (f7, female rats, high dose) | Arginine (f7, female rats, high dose) | Ketoleucine (f7, female rats, high dose) | Lactate (f7, female rats, high dose) | Proline (f7, female rats, high dose) | Serine (f7, female rats, high dose) | Valine (f7, female rats, high dose) | Alanine (f14, female rats, high dose) | Arginine (f14, female rats, high dose) | Ketoleucine (f14, female rats, high dose) | Lactate (f14, female rats, high dose) | Proline (f14, female rats, high dose) | Serine (f14, female rats, high dose) | Valine (f14, female rats, high dose) | Isopalmitic acid (C16:0) [2] | Alanine (f28, female rats, high dose) | Arginine (f28, female rats, high dose) | Ketoleucine (f28, female rats, high dose) | Lactate (f28, female rats, high dose) | further results
1 | CCOC(=O)C(C)(C)Oc1ccc(Cl)cc1 [Clofibrate] | 0.83 * | 0.63 | 0.74 | 1.04 | 1.22 | 0.81 | 0.85 | 0.91 | 0.72 | 0.93 | 0.94 | 0.66 | 0.88 | 0.98 | 0.94 | 1.53 * | 0.84 | 0.92 | 0.88 | 0.83 | Isopalmitic acid (C16:0) (f14, female rats, high dose, Table 17a): 0.84; Proline (f28, female rats, high dose): 0.85; Serine (f28, female rats, high dose): 1.03; Valine (f28, female rats, high dose): 1.14
2 | CN(CCOc1ccc(CC2SC(=O)NC2=O)cc1)c1ccccn1 (stereo not drawn) [Rosiglitazone maleate] | 1.46 * | 0.83 | 0.85 | 0.72 | 0.56 | 0.91 | 1 | 0.92 | 0.81 | 0.73 | 0.71 | 1.24 | 0.81 | 0.91 | 0.72 | 1.52 * | 0.92 | 0.93 | 0.67 | 0.65 | Proline (f28, female rats, high dose): 1.03; Serine (f28, female rats, high dose): 1.06; Valine (f28, female rats, high dose): 0.98; Isopalmitic acid (C16:0) (rat, in vivo): 1.41 *
3 | CCC(=O)Oc1ccc(/C(CC)=C(\CC)c2ccc(OC(=O)CC)cc2)cc1 [Diethylstilboestrol dipropionate] |  |  |  |  |  |  |  |  |  |  |  |  |  |  |  |  |  |  |  |  | Cholesterol (f7, high dose): 0.48 *; Choline plasmalogen No 02 (f7, high dose): 0.7 *; Lignoceric acid (C24:0) (f7, high dose): 0.49 *; Sphingomyelin (d18:1, C16:0) (f7, high dose): 0.72 *; Sphingomyelin (d18:2, C16:0) (f7, high dose): 0.67 *; erythro-Sphingosine (d18:1) (f7, high dose): 0.38 *; Cholesterol (f14, high dose): 0.69 *; Choline plasmalogen No 02 (f14, high dose): 0.75 *; Lignoceric acid (C24:0) (f14, high dose): 0.6 *; Sphingomyelin (d18:1, C16:0) (f14, high dose): 0.59^; Sphingomyelin (d18:2, C16:0) (f14, high dose): 0.71 *; erythro-Sphingosine (d18:1) (f14, high dose): 0.67 *; Cholesterol (f28, high dose): 0.58 *; Choline plasmalogen No 02 (f28, high dose): 0.67 *; Lignoceric acid (C24:0) (f28, high dose): 0.59 *; Sphingomyelin (d18:1, C16:0) (f28, high dose): 0.73 *; Sphingomyelin (d18:2, C16:0) (f28, high dose): 0.58 *; erythro-Sphingosine (d18:1) (f28, high dose): 0.46 *
